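Briefly, cells in 96-well plates were exposed to five compound concentrations for 48 h, and endpoints were estimated by linear interpolation. At the GI50, growth is halved.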 Activity calls are given as the source filed them. Cut-off read from the data, not from the text of the source: active = GI50 up to about 1.1 µM and inactive = higher.

Some test systems named below: A498; DU-145; HCT-15; HL-60; HT-29; IGROV-1; KM12; MDA-N; NCI-H226; NCI-H522; OVCAR-3; OVCAR-4; RPMI-8226; SF-295; SW-620; U-251; UACC-257; UO-31; SK-MEL-28; MDA-MB-231.
What all share (test): NCI tumour cell line growth inhibition, 48 h

Take `CCNC1(c2cccc(C)c2)OC(C)(C)c2cccc3cccc1c23` (configuration not stated): the GI50 is 17.5 µM (inactive) in the experiment on A498; 17.7 µM (inactive) with DU-145; 19.6 µM with HCT-15; 0.646 µM (active) in the experiment on HL-60; 14 µM (inactive) in the experiment on HT-29; 17.8 µM (inactive) with IGROV-1. In addition, the GI50 is 21.9 µM (inactive) with KM12; 19.3 µM (inactive) in the experiment on MDA-N; 19.9 µM (inactive) in the experiment on NCI-H226; 15.1 µM (inactive) with NCI-H522; 17.3 µM (inactive) in the experiment on OVCAR-3; 16 µM (inactive) in the experiment on OVCAR-4. Also, the GI50 in the experiment with RPMI-8226 was 0.0321 µM (active); in the experiment on SF-295, 17.9 µM (inactive); with SW-620 it was 17.8 µM (inactive); with U-251 it was 16.9 µM (inactive); in the experiment with UACC-257 it was 18.8 µM (inactive); in the experiment on UO-31, 16.1 µM (inactive).
Regarding `N#Cc1c(N2CCCC2)ncn(Cc2ccccc2)c1=O`, the GI50 was > 100 µM (inactive) in the experiment with A498; > 100 µM (inactive) with DU-145; above 100 µM in the experiment on HCT-15; > 100 µM (inactive) in the experiment with HL-60; > 100 µM (inactive) with HT-29; > 100 µM (inactive) in the experiment with IGROV-1. Besides, the GI50 with KM12, in the experiment on MDA-N, in the experiment on NCI-H226, with NCI-H522, in the experiment on OVCAR-3 and with OVCAR-4 was > 100 µM (inactive) in each case. The GI50 with RPMI-8226, in the experiment on SF-295, in the experiment with SK-MEL-28, in the experiment with SW-620, in the experiment with U-251 and in the experiment with UACC-257 was > 100 µM (inactive) in each case. In the experiment with UO-31, the GI50 is > 100 µM (inactive).
Regarding `COc1cc2c(cc1OCCCOc1cc(-c3ccc(F)cc3)nc(C)n1)N=C[C@@H]1CCCN1C2=O`, the GI50 is 12.7 µM (inactive) in the experiment with A498; 9.06 µM (inactive) in the experiment with DU-145; 12.6 µM with HCT-15; 24.9 µM (inactive) with HL-60; 23.1 µM (inactive) in the experiment with HT-29; 19.2 µM (inactive) in the experiment with IGROV-1. Further, the GI50 with KM12 is 19.3 µM (inactive); in the experiment with MDA-MB-231 it was 13.8 µM (inactive); in the experiment with NCI-H226, 15.2 µM (inactive); with NCI-H522, 14.6 µM (inactive); in the experiment with OVCAR-3 it was 15.2 µM (inactive); in the experiment with OVCAR-4, 33.5 µM (inactive). For the same compound, the GI50 is 26.1 µM (inactive) with RPMI-8226; 16.4 µM (inactive) in the experiment on SF-295; 20.7 µM (inactive) in the experiment with SK-MEL-28; 22.9 µM (inactive) with SW-620; 14.8 µM (inactive) in the experiment on U-251; 17.3 µM (inactive) in the experiment with UACC-257. For the same compound, the GI50 in the experiment on UO-31 is 17.7 µM (inactive).
As for `N#CCCC1(CCC#N)CCCCCCCCC(CCC#N)(CCC#N)C(=O)C1=O`, the GI50 is > 100 µM (inactive) in the experiment on DU-145; above 100 µM with HCT-15; > 100 µM (inactive) in the experiment with HL-60; > 100 µM (inactive) with HT-29; > 100 µM (inactive) in the experiment on KM12; > 100 µM (inactive) with MDA-N. The GI50 in the experiment with NCI-H226 was > 100 µM (inactive); in the experiment on NCI-H522 it was 5.81 µM (inactive); in the experiment on OVCAR-3, > 100 µM (inactive); with OVCAR-4 it was > 100 µM (inactive); with SF-295, > 100 µM (inactive); in the experiment with SK-MEL-28, > 100 µM (inactive). The GI50 in the experiment on SW-620 was > 100 µM (inactive); in the experiment with U-251, > 100 µM (inactive); with UACC-257, 55.6 µM (inactive).
In the case of `c1ccc2/c3[nH]/c(c2c1)=N\c1ccc(cc1)-c1nc2cc(ccc2o1)/N=c1/[nH]/c(c2ccccc12)=N/c1ccc2nc(oc2c1)-c1ccc(cc1)\N=3`, the GI50 was > 100 µM (inactive) with A498; > 100 µM (inactive) in the experiment on DU-145; above 100 µM in the experiment with HCT-15; > 100 µM (inactive) in the experiment with HL-60; 49.4 µM (inactive) with HT-29; > 100 µM (inactive) with IGROV-1. Further, the GI50 with KM12 was 81.1 µM (inactive); in the experiment with MDA-N, > 100 µM (inactive); in the experiment on NCI-H522, > 100 µM (inactive); with OVCAR-4 it was > 100 µM (inactive); in the experiment on SF-295, > 100 µM (inactive); in the experiment on SK-MEL-28, > 100 µM (inactive). In addition, the GI50 with SW-620, in the experiment with U-251, in the experiment on UACC-257 and with UO-31 was > 100 µM (inactive) in each case.
For `Cc1ccc(C)n2c1nc1cc3ccccc3cc12`, the GI50 in the experiment with DU-145 is 51.9 µM (inactive); in the experiment on HCT-15 it was 4.92 µM; with HL-60 it was 53.8 µM (inactive); in the experiment on IGROV-1 it was 23.1 µM (inactive); in the experiment on KM12, 21.1 µM (inactive); in the experiment on MDA-N it was 38.6 µM (inactive). The GI50 is 36 µM (inactive) with NCI-H226; 25.1 µM (inactive) in the experiment with OVCAR-3; 42.5 µM (inactive) in the experiment with RPMI-8226; 42.3 µM (inactive) in the experiment on SF-295; 45 µM (inactive) with SK-MEL-28; 33.1 µM (inactive) in the experiment on SW-620. Further, the GI50 in the experiment on U-251 is 30.4 µM (inactive); in the experiment on UACC-257, 49.2 µM (inactive); in the experiment with UO-31 it was 14.9 µM (inactive).
Turning to `CC1=NN(c2nc(N)nc(CF)n2)C(C)(C)C1`, the GI50 in the experiment with A498 was > 100 µM (inactive); in the experiment on DU-145, > 100 µM (inactive); in the experiment with HCT-15 it was above 100 µM; in the experiment on HL-60, > 100 µM (inactive); in the experiment on HT-29 it was > 100 µM (inactive); in the experiment on IGROV-1 it was > 100 µM (inactive). In addition, the GI50 in the experiment with KM12, with MDA-MB-231, in the experiment with NCI-H226, with OVCAR-4, in the experiment on RPMI-8226 and with SF-295 was > 100 µM (inactive) each time. The GI50 in the experiment with SK-MEL-28, in the experiment on SW-620, in the experiment with U-251, in the experiment on UACC-257 and in the experiment with UO-31 was > 100 µM (inactive) in each case.
For `CC1(C)O[C@@H]2[C@@H](COC(=O)c3ccccc3)C[C@@H](C#N)[C@@H]2O1`, the GI50 is > 100 µM (inactive) with A498; > 100 µM (inactive) in the experiment with DU-145; above 100 µM in the experiment on HCT-15; > 100 µM (inactive) in the experiment on HL-60; > 100 µM (inactive) in the experiment with HT-29; > 100 µM (inactive) in the experiment on IGROV-1. Besides, the GI50 in the experiment with KM12, in the experiment with MDA-MB-231, in the experiment with NCI-H226, in the experiment with NCI-H522, with OVCAR-3 and with OVCAR-4 was > 100 µM (inactive) each time. In addition, the GI50 in the experiment with RPMI-8226, with SF-295, with SK-MEL-28, with SW-620, with U-251 and in the experiment on UO-31 was > 100 µM (inactive) each time.

(Values after ChEMBL document CHEMBL1201862, “PubChem BioAssay data set” (2004).)
